Measurements taken from patent publication US12303523B2, “Method for treating dupuytren's disease” (Dale Biotech, LLC, priority 2019, dated 2025).
Converted amounts (≈) assume the structure as drawn.

Experiments:
physchem = type: physicochemical
Protocol: Niclosamide ethanolamine salt (niclosamide) was dissolved and titrated (2-fold) in methanol to generate standard curves. The linear range of niclosamide quantification using UV spectrometry (333 nm) was established to be 0.006-0.1 mM. A suspension of niclosamide was prepared in H2O at a concentration of 32.7 mg/ml (100 mM) by vigorous vortexing. A stock solution of rhamnolipids were prepared in H2O at a concentration of 400 mg/ml and diluted appropriately prior to the addition of niclosamide in the presence or absence of 20% glycerol. Niclosamide was added to a final concentration of 10 mM. The solutions were vortexed vigorously, warmed at 37° C. for 5 minutes, vortexed vigorously, and then centrifuged at 17,000 RCF for 5 minutes to remove any large particulates. The supernatant of each sample was assayed for soluble niclosamide by diluting 1:10 to 1:100 in methanol and comparing to a niclosamide standard curve.

[1] = cited from earlier work
NF-κB = details: in vitro experiments; cited from earlier work
STAT3 = STAT3 (Homo sapiens, UniProt P40763); details: Ren X, et al. ACS Med Chem Lett., 2010; cited from earlier work
Chain of STAT3 (P40763 whole entry, species assumed): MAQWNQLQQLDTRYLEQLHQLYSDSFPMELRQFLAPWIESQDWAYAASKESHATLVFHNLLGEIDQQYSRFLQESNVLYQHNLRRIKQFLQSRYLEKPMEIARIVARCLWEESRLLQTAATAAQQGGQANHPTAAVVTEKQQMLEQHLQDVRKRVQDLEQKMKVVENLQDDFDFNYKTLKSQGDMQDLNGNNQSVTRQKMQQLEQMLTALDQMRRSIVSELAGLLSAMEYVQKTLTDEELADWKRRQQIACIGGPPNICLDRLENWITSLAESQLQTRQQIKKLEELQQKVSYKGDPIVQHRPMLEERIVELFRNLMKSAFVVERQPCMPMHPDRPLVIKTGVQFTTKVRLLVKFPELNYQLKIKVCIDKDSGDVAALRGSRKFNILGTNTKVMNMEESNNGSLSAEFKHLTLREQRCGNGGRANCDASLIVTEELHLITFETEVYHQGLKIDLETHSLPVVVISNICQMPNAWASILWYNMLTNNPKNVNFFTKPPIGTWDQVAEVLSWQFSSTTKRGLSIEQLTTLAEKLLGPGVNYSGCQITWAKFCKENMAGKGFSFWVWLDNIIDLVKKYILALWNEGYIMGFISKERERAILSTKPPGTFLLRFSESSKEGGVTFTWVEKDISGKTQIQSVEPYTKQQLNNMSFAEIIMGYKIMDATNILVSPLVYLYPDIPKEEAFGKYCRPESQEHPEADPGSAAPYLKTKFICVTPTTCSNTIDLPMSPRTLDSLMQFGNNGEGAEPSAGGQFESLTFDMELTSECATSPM

solubility at 5 min (physchem; 37 °C, water, thermodynamic from solid, Soluble Niclosamide mM, ±SD) | increase of solubility (physchem; 5 min) | Structure (SMILES) | solubility in distilled water ([1]; distilled water, 20° C.) | solubility in DMSO ([1]; DMSO) | solubility in ethanol ([1]; ethanol) | solubility in organic solvents ([1]; ether, ethanol, chloroform, acetone and DMSO) | water solubility ([1]; water, 20° C.) | inhibition of NF-κB transcription, DNA binding, TNF-induced IκBα phosphorylation, p65 translocation, downstream gene expression (NF-κB) | inhibition of activation and transcriptional function of STAT3 (STAT3)
1.06 ± 0.053 mM (≈ 347 µg/mL) | – | O=C(Nc1ccc([N+](=O)[O-])cc1Cl)c1cc(Cl)ccc1O [Niclosamide ethanolamine, niclosamide ethanolamine] | 180 to 280 µg/mL | – | – | – | – | – | –
– | more than 3 fold | O=C(Nc1ccc([N+](=O)[O-])cc1Cl)c1cc(Cl)ccc1O [Niclosamide] | – | up to 10 mM | 22000 µM (≈ 7200 µg/mL) | sparingly soluble | 5 to 8 µg/mL | inhibits | potently inhibits
